pIC50: −log10 of the molar value.

In assay [1] the test system is Mes-Sa. As to the kind of experiment: Cytotoxicity, uterine sarcoma parental line. In kind it is cell-based. The note with it: fluorescent protein intensity after 144 h. As to the method: (§1) OVCAR-3 (OVC-3) and OVCAR-8 (OVC-8) ovarian serous adenocarcinomas, IGROV-1 ovarian endometrioid adenocarcinoma, OVCAR-5 (OVC-5) upper gastrointestinal carcinoma, MDA-MB-231 breast adenocarcinoma, and MCF-7 and T-47D invasive breast carcinomas were purchased from the Developmental Therapeutic Program of the National Cancer Institute (NIH, USA) and were cultured in an RPMI medium (Thermo Fisher). Mes-Sa and Mes-Sa/Dx5 uterine sarcoma cell lines were purchased from American Type Culture Collection (ATCC) and were kept in DMEM (Thermo Fisher). Mes-Sa B1 was transfected with the human MDR1 gene, and Mes-Sa mCherry, Mes-Sa B1 mOrange, and Mes-Sa/Dx5 eGFP were engineered to stably express the respective fluorescent proteins previously.[51] Culture media for cancer cells were supplemented with 10% fetal bovine serum, 2 mM L-glutamine, and 100 units/mL penicillin and 100 μg/mL streptomycin (Thermo Fisher). The adipose tissue and bone marrow-derived mesenchymal stem cells (AD-MSC and BM-MSC) were described previously[37] and were kept in DMEM-F12 (Gibco) supplemented with 10% fetal bovine serum, L-glutamine (Thermo Fisher), 0.1% gentamicin (Gibco, 50 mg/mL), and 16 ng/mL fibroblast growth factor 2 (Peprotech). Cells were kept at 37 °C under 5% CO2 and were negative for mycoplasma infection.
(§2) Cytotoxicities of the nonfluorescent cancer cells were assessed with a PrestoBlue cell viability reagent (Thermo Fisher). Briefly, 2500 cells/well were seeded on 384-well plates; then, the next-day drugs were added. After 72 h of incubation, PrestoBlue was added in a 10% final concentration, and after an hour of additional incubation, plates were measured with a PerkinElmer EnSpire plate reader at 555 nm/585 nm excitation/emission wavelengths. Stem cells were seeded on 96-well plates at a density of 5000 cells/well, and the following day, drugs were added for 96 h of incubation; then, viability was assessed with 10% PrestoBlue diluted in PBS. Fluorescent cancer cells were admixed before seeding on 384-well plates at an 800 cells/well density each, thus altogether 2400 cells/well. Drugs were added the following day, and the intensity of the fluorescent proteins was measured after 144 h of incubation at the respective fluorescent channels (excitation/emission, eGFP: 485 nm/510 nm; mCherry: 585 nm/610 nm; mOrange: 545 nm/567 nm). pIC50 values were calculated by a custom program written by Judit Sessler in C#. IC50 values and standard deviation were calculated from average pIC50 values from at least 3 independent measurements.

Assay [2] deals with Mes-Sa B1. In words: Cytotoxicity, MDR1-transfected uterine sarcoma line. In kind it is cell-based. The note with it: Mes-Sa B1 (MDR1 transfected, ABCB1 expressing), fluorescent protein intensity after 144 h. The procedure: as §1, §2
The test system of assay [3] is Mes-Sa/Dx5. In words: Cytotoxicity, doxorubicin-selected MDR uterine sarcoma line. The class given is cell-based. The note with it: Mes-Sa/Dx5 (doxorubicin selected, ABCB1 expressing), fluorescent protein intensity after 144 h. As to the method: as §1, §2
In assay [4] the test system is HL-60 leukemia line. More on the design: method as in PMID 34808062. The note with it: cited from earlier work.
The subject of assay [5] is IGROV-1. In words: Cytotoxicity (PrestoBlue), ovarian cancer line. The class given is cell-based. The note with it: IGROV-1, 72 h incubation. The procedure: as §1, §2
Assay [6] deals with OVC-3. As to the kind of experiment: Cytotoxicity (PrestoBlue), ovarian cancer line. In kind it is cell-based. The note with it: OVC-3, 72 h incubation. As to the method: as §1, §2
Assay [7] deals with OVC-8. In words: Cytotoxicity (PrestoBlue), ovarian cancer line. The class given is cell-based. The settings on record: OVC-8, 72 h incubation. As to the method: as §1, §2
The subject of assay [8] is OVC-5. As to the kind of experiment: Cytotoxicity (PrestoBlue), upper gastrointestinal cancer line. The class given is cell-based. The note with it: OVC-5, 72 h incubation, PrestoBlue. The procedure:
as §1, §2

The subject of assay [9] is MCF-7. In words: Cytotoxicity (PrestoBlue), breast cancer line. The note with it: MCF-7, 72 h incubation. In kind it is cell-based. The procedure: as §1, §2
Assay [10] has as its system MDA-MB-231. In words: Cytotoxicity (PrestoBlue), breast cancer line. The note with it: MDA-MB-231, 72 h incubation. The class given is cell-based. As to the method: as §1, §2
In assay [11] the test system is T-47D. In words: Cytotoxicity (PrestoBlue), breast cancer line. The class given is cell-based. The settings on record: 72 h incubation. The procedure:
as §1, §2

The subject of assay [12] is AD-MSC. In words: Cytotoxicity (PrestoBlue), adipose-derived mesenchymal stem cells. The class given is cell-based. The settings on record: 96 h incubation. As to the method:
as §1, §2

Assay [13] relates to BM-MSC. In words: Cytotoxicity (PrestoBlue), bone marrow-derived mesenchymal stem cells. The class given is cell-based. The settings on record: 96 h incubation. As to the method:
as §1, §2

Assay [14] has as its system im. BM-MSC. In words: Cytotoxicity (PrestoBlue), immortalized bone marrow MSC. In kind it is cell-based. The settings on record: 96 h incubation. As to the method: as §1, §2
Assay [15] concerns 3 breast cancer cell lines (MDA-MB-231, MCF-7 and T-47D). As to the kind of experiment: Cytotoxicity, range over 3 breast cancer cell lines. In kind it is cell-based. The note with it: MDA-MB-231, MCF-7, T-47D. The procedure: as §1, §2
For assay [16], the system named is Bone marrow MSCs (BM-MSC). In words: Cytotoxicity, range over bone marrow MSCs. The class given is cell-based. The note with it: BM-MSC and immortalized BM-MSC. The procedure:
as §1, §2

For the compound `COc1cc([C@@H]2c3cc4c(cc3[C@@H](O[C@@H]3O[C@@H]5CO[C@@H](C)O[C@H]5[C@H](O)[C@H]3O)[C@H]3COC(=O)[C@H]23)OCO4)cc(OC)c1O` [Etoposide, etoposide, reference compound], the pIC50 is 6.59 in assay [1] (Homo sapiens); 5.93 in assay [2] (Homo sapiens); 5.77 in [3] (Homo sapiens, MES-SA/Dx5, 144 h).
`COc1cccc(C[n+]2c(C)c(C)n(Cc3ccccc3)c2C)c1` [lepidiline D]: in assay [4], the pIC50 is 5.96.
As for `N.N.[Cl][Pt][Cl]` [Cisplatin, cisplatin, reference compound], the pIC50 in [5] is 5.66; in assay [6], 5.18; in [7], 5.20; in assay [8] it was 5.15; in [9] it was 5.57; in [10], 5.66. The pIC50 was 5.22 in assay [11]; 5.74 in assay [1]; 5.68 in assay [2]; 5.33 in [3]; 4.78 in assay [12]; 5.63 in [13]. For the same compound, the figures for the negative-log IC50 (pIC50) in [14], in assay [15] and in [16] were 5.71, 5.22 to 5.66 and 5.64 to 5.70, respectively.

The values are drawn from paper PMC11270681, “Synthesis and Systematic Investigation of Lepidiline A and Its Gold(I), Silver(I), and Copper(I) Complexes Using In Vitro Cancer Models and Multipotent Stem Cells” (ACS Omega, 2024).
